Assay results taken from patent publication US20250011788A1, “NUCLEIC ACID INTERFERENCE PHARMACEUTICAL COMPOSITION, AND DRUG FOR TREATING COLORECTAL CANCER, GASTRIC CANCER, AND PROSTATE CANCER” (SIRNAOMICS BIOPHARMACEUTICALS (SUZHOU) CO., LTD., priority 2022, published 2025).
d = 2'-deoxy (DNA); r = 2'-OH (RNA)

Key:
TGF-β1 protein = assay: Western Blot knockdown of target gene protein in cell lines (TGF-β1); format: cell-based, human; details: RKO cell line; 100 nM and 10 nM, 48 h
Method: The target gene knockdown effects of siRNA sequences on the targets TGF-β1 and MyD88 at the cellular level were evaluated by Western Blot. The procedures were as follows: on The day before the initiation of the experiment, the cells were inoculated in a 6-well plate at 1×10^6 cells per well, and cultured overnight. On the second day, siMyD88 and siTF1 were transfected into the cells at 100 nM and 10 nM respectively. After transfection for 48 h, the cells were collected and transferred to centrifuge tubes. RIPA lysate was added to each tube to extract total cell protein, and then the total cell protein concentration was quantified by a BCA protein quantification method. Western Blot analysis was performed on all protein samples using the following antibodies: MyD88 primary antibody (ab219413, 1:1000), TGF-β1 primary antibody (ab215715, 1:1000), Goat Anti-Rabbit IgG H&L (HRP) (ab205718, 1:10000). After the experiment, the ChemiDoc™ MP Imaging System (BIO-RAD) was used to capture the results.
Western Blot analysis of protein expression in candidate MyD88 siRNA (MD8-21-hm5#) plus TGF-β1 siRNA (TF1-21-h1#) in three cell lines in in-vitro human breast cancer cell line (MDA-MB-231) (FIG. 5A), human colon cancer cell line (RKO) (FIG. 5B) and mouse prostate cancer (RM-1) cells (FIG. 5C).

MyD88 gene (mRNA) [1] = assay: In vitro screening of MyD88 siRNA: MyD88 mRNA silencing by RT-PCR; format: cell-based, human; details: 100 nM siRNA; for target gene silencing effect in colorectal cells: lipo2000, 20-24 h
Method: Some cell lines screened out in Example 2 were used for primary siRNA screening, including a breast cancer cell line (MDA-MB-231), a neuroglioma cell line (U87-MG), a human brain glioma cell line (T98G), a human colorectal cancer epithelial cell line (DLD-1) and a human colon cancer cell line (RKO). Specifically, the MyD88 siRNA sequence in Table 1 was transfected into the above five cells by lipo2000, and the transfection concentration was 100 nM (calculated by siRNA). After transfection for 20-24 h, the total RNA of the cells was extracted, and the mRNA expression level of the target gene MyD88 was detected by RT-PCR technology. […] The three specifical sequences are MD8-21-hm3# (NTS00025-21-hm3# in FIG. 3), MD8-21-hm4# (NTS00025-21-hm4# in FIG. 3) and MD8-21-hm5# (NTS00025-21-hm5# in FIG. 3).

RM-1 cells tumor graft = assay: Mouse subcutaneous tumor graft model of prostate cancer RM-1 cells; format: in vivo, C57BL/6J mice
Method: Next, another tumor graft model was established to further validate the pharmacodynamic evaluation of candidate drug on the growth of mouse tumor graft of mouse prostate cancer RM-1 cells. The nano drug formulation was prepared by the method described above. RM-1 subcutaneous tumor-bearing mice were modeled as follows: C57BL/6J mice were each inoculated subcutaneously with 5×10^6 cells. The mice were grouped on the basis of random numbers when the mean tumor volume reached about 100-120 mm^3. The dosing regimen was as follows: for STP500, 3 mg/kg, intravenously administered (i.v.) via the tail vein, every 2 days (Q2D); for The positive control (docetaxel), 15 mg/kg, intraperitoneally administered (i.p.), every week (QW). After the first dose, the weight and tumor volume of the mice were recorded every 2 days, and the tumor volume was calculated by V=0.5×(Dmax×Dmin^2), where Dmax refers to the longest diameter of the tumor, and Dmin refers to the shortest diameter of the tumor. A tumor volume curve was drawn at the end of the experiment. The mice were euthanized, and tumors were removed and weighed. TGItw (percentage change in Tumor weight) was calculated by:
(§1) [formula] • Mean TWtreat: the mean tumor weight of the mice in the treatment group at the end of treatment; • Mean TWvehicle: the Mean tumor weight of mice in the Vehicle group at the end of treatment.

MyD88 gene (mRNA) [2] = assay: EC50 of MyD88 mRNA knockdown in human-derived cell lines; format: cell-based
Method: Then, for these candidate siRNA sequences, multiple concentration gradients were set in human-derived cell lines and mouse-derived cell lines respectively for cell transfection, and their EC50 values (half-maximal effective concentration) were obtained. […] In the mouse-derived cell lines, EC50<10 nM only occurs for MD8-21-hm5# in mouse prostate cancer (RM-1) cells and colorectal cancer (MC38) cells as well as MD8-21-hm4# in colorectal cancer (MC38) cells. Therefore, based on the above data, the human-mouse homologous sequence MD8-21-hm5# is preferably used for pharmacodynamic evaluation of animal models in vivo.

MyD88 protein = assay: Western Blot knockdown of target gene protein in cell lines (MyD88); format: cell-based, human and mouse cell lines; details: MDA-MB-231, RKO and RM-1 cells; 100 nM and 10 nM, 48 h
DLD-1 cells = assay: In vitro cell migration (wound healing/scratch) test; format: cell-based, human; details: 96 h, 100 and 10 nM, dose-dependent
Method: On the day before the initiation of the experiment, a 12-well plate was prepared, a 2-well culture-insert for wound healing (ibidi, 80209) was placed in the center of the culture dish, and cells were inoculated into the 2-well culture-insert at 1×10^4 cells per well and cultured overnight. On the second day, siMyD88 was transfected into the cells at […] and 10 nM, and the transfection experiment was completed. After transfection for 24 h, the 2-well culture-insert for wound healing was gently removed with tweezers (to avoid cell shedding), and the 12-well plate was added with a medium containing 1% serum to continue cell culture. At the same time, a photograph was taken under the microscope as the 0 h cell migration data. The culture was continued for 24 h and 96 h, and the cell migration was recorded under the microscope. The cell migration was determined by comparing the wound distance at the initial scratch (0 h) versus at the later observation points (24 h and 96 h).

MC38 cells tumor graft = assay: Mouse subcutaneous tumor graft model of colorectal cancer MC38 cells; format: in vivo, C57BL/6 mice; details: STP500 2 mg/kg i.v. Q2D, siMD8 1 mg/kg i.v. Q2D, Sorafenib 30 mg/kg p.o. QD
From the text: Based on the data from previous in-vitro experiments, two siRNAs (MD8-21-hm5# and TF1-25-hm5# in this example) were mixed at a mass ratio of 1/1, and encapsulated the mixture into the HKP(+H) (histidine-lysine polymer) carrier through patented PNP technology to prepare the nanoparticle formulation (the nano drug formulation STP500 prepared in Example 8). The tumor growth inhibitory activity of the candidate siRNA sequence was validated by a mouse tumor xenograft model (colorectal cancer cells MC38).
C57BL/6 mice were each inoculated subcutaneously with 1×10^6 MC38 cells per mouse, and randomized groups when the mean tumor volume reached about 100 mm^3. The dosing regimen was as follows: for STP500, 2 mg/kg, intravenously administered (i.v.) via the tail vein, every 2 days (Q2D); for Small nucleic acid monotherapy MD8 (MyD88 siRNA, also known as siMyD88), 1 mg/kg, intravenously administered (i.v.) via the tail vein, every 2 days (Q2D); and for the positive control group (Sorafenib), 30 mg/kg, intragastrically administered p.o., every day (QD). After the first dose, the weight and tumor volume of the mice were recorded every 2 days, and the tumor volume was calculated by V=0.5×(Dmax×Dmin^2), where Dmax refers to the longest diameter of the tumor, and Dmin refers to the shortest diameter of the tumor. […] TGItw (percentage change in tumor weight) was calculated by: […]

[3] = system: MKN45 cells tumor xenograft; assay: Mouse subcutaneous tumor xenograft model of gastric cancer MKN45 cells; format: in vivo, BALB/c-Nude mice
Method: Next, another tumor graft model was established to further validate the pharmacodynamic evaluation of candidate drug on the growth of mouse tumor xenograft of human gastric cancer MKN45 cells. The nano drug formulation was prepared by the method described above. MKN45 subcutaneous tumor-bearing mice were modeled as follows: BALB/c-Nude mice were each inoculated subcutaneously with 5×10^6 MKN45 cells. Randomization was performed when the mean tumor volume reached about 100-120 mm^3. […] After the first dose, the weight and tumor volume of the mice were recorded every 2 days, and the tumor volume was calculated by V=0.5×(Dmax×Dmin^2), where Dmax refers to the longest diameter of the tumor, and Dmin refers to the shortest diameter of the tumor. A tumor volume curve was drawn at the end of the experiment. The mice were euthanized, and tumors were removed and weighed. TGItw (percentage change in tumor weight) was calculated by:
as §1

In the case of “TF1-21-h1#: TGF-β1 siRNA; sense GCAGAGUACACACAGCAUAdTdT (SEQ ID NO: 37), antisense UAUGCUGUGUGUACUCUGCdTdT (SEQ ID NO: 38) (sense GCAGAGUACACACAGCAUATT; antisense UAUGCUGUGUGUACUCUGCTT; sugars from the 5' end r19 d2, backbone not given here)”, the “knockdown effect on TGF-β1 protein” value (TGF-β1 protein) is reported as “obvious knockdown effect”.
In the case of “MD8-21-hm3#: MyD88 siRNA; sense CAGAGCAAGGAAUGUGACUdTdT (SEQ ID NO: 27), antisense AGUCACAUUCCUUGCUCUGdTdT (SEQ ID NO: 28) (sense CAGAGCAAGGAAUGUGACUTT; antisense AGUCACAUUCCUUGCUCUGTT; sugars from the 5' end r19 d2, backbone not given here)”, the “target gene silencing effect in colorectal cells” value (“target gene silencing effect” for short) (MyD88 gene (mRNA) [1]) is reported as “about 85%”.
In the case of `CC(=O)O[C@@]12CO[C@@H]1C[C@H](O)[C@@]1(C)C(=O)[C@H](O)C3=C(C)[C@@H](OC(=O)[C@H](O)[C@@H](NC(=O)OC(C)(C)C)c4ccccc4)C[C@@](O)([C@@H](OC(=O)c4ccccc4)[C@H]21)C3(C)C` [Docetaxel], the “effect on the weight of mice” value (RM-1 cells tumor graft; STP500 3 mg/kg Q2D, Docetaxel 15 mg/kg i.p. QW) is reported as “no significant difference”, the “growth of prostate cancer tumor graft” value (RM-1 cells tumor graft; after 8 doses, compared with control group) is reported as “did not show a tumor-killing effect” and the “Tumor weight, Mean” value (RM-1 cells tumor graft; end of treatment, STP500 3 mg/kg i.v. Q2D, Docetaxel 15 mg/kg i.p. QW) is reported as 4.72 g. The “TGItw (tumor growth inhibition by tumor weight)” value (RM-1 cells tumor graft; versus Vehicle, STP500 3 mg/kg i.v. Q2D, Docetaxel 15 mg/kg i.p. QW) was −4%.
“MD8-21-h5#: MyD88 siRNA; sense GCAUACACACGUUUUUCUAdTdT (SEQ ID NO: 9), antisense UAGAAAAACGUGUGUAUGCdTdT (SEQ ID NO: 10) (sense GCAUACACACGUUUUUCUATT; antisense UAGAAAAACGUGUGUAUGCTT; sugars from the 5' end r19 d2, backbone not given here)” was tested, and the “ranking of silencing effect among human-derived sequences” value (MyD88 gene (mRNA) [1]; five human cell lines) was “best effect” and the “effect in EC50 comparison” value (MyD88 gene (mRNA) [2]) was “relatively good”.
In the case of “MD8-21-hm5#: MyD88 siRNA; sense GAAUGUGACUUCCAGACCAdTdT (SEQ ID NO: 31), antisense UGGUCUGGAAGUCACAUUCdTdT (SEQ ID NO: 32) (sense GAAUGUGACUUCCAGACCATT; antisense UGGUCUGGAAGUCACAUUCTT; sugars from the 5' end r19 d2, backbone not given here)”, the “knockdown effect on MyD88 protein” value (MyD88 protein) is reported as “obvious knockdown effect”, the “inhibitory effect on in vitro migration ability” value (DLD-1 cells) is reported as “significant inhibitory effect” and the “target gene silencing effect” value (MyD88 gene (mRNA) [1]) is reported as “about 85%”. The “effect in EC50 comparison” value (MyD88 gene (mRNA) [2]) was “relatively good”.
`CNC(=O)c1cc(Oc2ccc(NC(=O)Nc3ccc(Cl)c(C(F)(F)F)c3)cc2)ccn1` [Sorafenib] was tested, and the “Tumor weight, Mean” value (MC38 cells tumor graft; end of treatment) was 0.3571 g and the “TGItw (tumor growth inhibition by tumor weight)” value (MC38 cells tumor graft; versus Vehicle) was 12.28%.
With “MD8-21-hm4#: MyD88 siRNA; sense GCAAGGAAUGUGACUUCCAdTdT (SEQ ID NO: 29), antisense UGGAAGUCACAUUCCUUGCdTdT (SEQ ID NO: 30) (sense GCAAGGAAUGUGACUUCCATT; antisense UGGAAGUCACAUUCCUUGCTT; sugars from the 5' end r19 d2, backbone not given here)” the “target gene silencing effect” value (MyD88 gene (mRNA) [1]) was “about 85%”.
`O=C1[O][Pt]2([NH][C@@H]3CCCC[C@H]3[NH]2)[O]C1=O` [Oxaliplatin] was tested, and the “growth of gastric cancer tumor graft” value ([3]; after 7 doses, compared with control group) was “better tumor inhibition effect”, the “Tumor weight, Mean” value ([3]; end of treatment, STP500 3 mg/kg i.v. Q2D, Oxaliplatin 7.5 mg/kg i.p. QD) was 0.16 g and the “TGItw (tumor growth inhibition by tumor weight)” value ([3]; versus Vehicle, STP500 3 mg/kg i.v. Q2D, Oxaliplatin 7.5 mg/kg i.p. QD) was 58%.
